As a reminder, the IC50 is the concentration that gives 50% inhibition. A lower IC50 goes with inhibition by little substance. As usually defined, the AUC(0-t) is the area under the concentration-time curve up to a stated or last time point. Low values mean low exposure, high ones high exposure. By half-life is commonly meant the time needed for the level to fall by half in the phase considered. High values mean slow loss, low ones fast loss. The Cmax is the maximum level reached in the sampled fluid or tissue.

Data set [1] addresses Ba/F3 cells overexpressing EGFR Del19/T790M/C797S (Homo sapiens, UniProt P00533, T790M/C797S, cells depend on it, form not given). The data set can be described thus: Cell proliferation inhibitory activity assay, Ba/F3 EGFR Del19/T790M/C797S. In kind it is cell-based. Particulars: cell proliferation inhibition, 72 hours, luminescence; read-out: Ba/F3 cells overexpressing different EGFR mutations IC50 (nM) Del19/T790M/C797S. How it is done:
(§1) Suspension cells Ba/F3 (EGFR. Dell9/T790M/C797S), Ba/F3 (EGFR L858R/T790M/C797S), Ba/F3 (EGFR Del19/C797S), and Ba/F3 (EGFR L858R/C797S) overexpressing different EGFR mutations were cultured in PRMI 1640 containing 10% FBS and 1% PS, and adherent cells A431 carrying EGFR WT were cultured in DMEM containing 10% FBS and 1% PS. The experimental steps for compound activity detection are as follows: • (1) Take adherent cells in the logarithmic growth phase, digest them with trypsin count them, and then inoculate them into a 96-well plate at a certain density. Incubate them overnight at 37° C. and 5% CO2 to allow them to adhere.
(§2) Y=minimum+([…])/(1+10^((Log IC50−X)*slope)); • X: logarithm of compound concentration; Y: cell survival inhibition rate.

The target in data set [2] is Ba/F3 (EGFR Del19/C797S) (Homo sapiens, UniProt P00533, C797S, cells depend on it, form not given). The data set can be described thus: Cell proliferation inhibitory activity assay, Ba/F3 EGFR Del19/C797S. In kind it is cell-based. As to conditions: cell proliferation inhibition, 72 hours, luminescence; read-out: Ba/F3 cells overexpressing different EGFR mutations IC50 (nM) Del19/C797S. How it is done: as §1, §2

Data set [3] is described as follows: Metabolic stability of liver microsomes, rat. In kind it is in vitro ADME. As to conditions: NADPH, 0-45 min; for microsomal CLint: read-out: CLint(μL/min/mg protein) Rat. On the procedure:
(§3) The liver microsomes of human, rat, mouse and dog were used to study the metabolic stability of the compounds. The specific experimental steps are as follows: • (1) Add 40 μL MgCl2 and 306 μL PBS to each well of a 96-well plate, and then add 4 μL compound, with a final DMSO concentration of ≤0.5%. Set up a blank well without compound; • (2) Add 10 μL of 20 mg/mL liver microsomes to each well, incubate at 37° C. for 10 min; • (3) Add 40 μL NADPH working solution to each well to start the reaction, and set up a control well without NADPH; • (4) At 0, 5, 15, and 45 min after the start of the reaction, 50 μL of sample was taken out, the termination solution was added, and the mixture was shaken for 5 min. • (5) The samples were then centrifuged at 3,220 g for 10 min, and 50 μL of the supernatant was removed and was added 200 μL water for dilution and analysis by LC-MS/MS.
(§4) The in vitro intrinsic clearance (in vitro CLint, in μL/min/mg) was calculated from the in vitro half-life t1/2 (minutes) using the following equation (mean of replicates):
(§5) In vitro clearance rate=0.693/in vitro half-life t1/2×[incubation volume (μL)/(protein amount (mg)]
In general terms: Microsomes from liver hold many membrane-bound enzymes, among them those of drug oxidation.

The test system of data set [4] is A431 cell carrying EGFR WT. The data set can be described thus: Cell proliferation inhibitory activity assay, A431. As to conditions: cell proliferation inhibition, 72 hours, luminescence. The data set is classed as cell-based. How it is done:
as §1, §2

Data set [5] is described as follows: Metabolic stability of liver microsomes, mouse. The data set is classed as in vitro ADME. As to conditions: NADPH, 0-45 min; for microsomal CLint: read-out: CLint(μL/min/mg protein) Mouse. How it is done: as §3, §4, §5
A short description of data set [6]: Metabolic stability of liver microsomes, human. In kind it is in vitro ADME. As to conditions: NADPH, 0-45 min; for microsomal CLint: read-out: CLint(μL/min/mg protein) Human. How it is done:
as §3, §4, §5

The target of data set [7] is Ba/F3 (EGFR L858R/T790M/C797S) (Homo sapiens, UniProt P00533, T790M/C797S/L858R, cells depend on it). Kind of data set: Cell proliferation inhibitory activity assay, Ba/F3 EGFR L858R/T790M/C797S. Particulars: cell proliferation inhibition, 72 hours, luminescence; read-out: Ba/F3 cells overexpressing different EGFR mutations IC50 (nM) L858R/T790M/C797S. In kind it is cell-based. How it is done:
as §1, §2

In data set [8] the target is Ba/F3 (EGFR L858R/C797S) (Homo sapiens, UniProt P00533, C797S/L858R, cells depend on it). Kind of data set: Cell proliferation inhibitory activity assay, Ba/F3 EGFR L858R/C797S. The data set is classed as cell-based. As to conditions: cell proliferation inhibition, 72 hours, luminescence; read-out: Ba/F3 cells overexpressing different EGFR mutations IC50 (nM) L858R/C797S. How it is done:
as §1, §2

The nature of data set [9]: Metabolic stability of liver microsomes, dog. As to conditions: NADPH, 0-45 min, read-out: CLint(μL/min/mg protein) Dog. In kind it is in vitro ADME. How it is done: as §3, §4, §5
Data set [10] is described as follows: Pharmacokinetics in mice. In kind it is in vivo, mouse. As to conditions: mouse, po, female BALB/c mice, 5 mg/kg orally by gavage, plasma; for Cmax: read-out: Cmax. How it is done: Mouse PK studies were performed using female BALB/c mice (20-30 g). Compounds were prepared and prepared immediately before use. Mice were administered intravenously or orally by gavage. Blood was collected from the mouse orbital venous plexus, and 100 μL of whole blood was transferred to a K2-EDTA tube at each time point.
1 mg/kg was given intravenously, and whole blood was collected at 0.083, 0.25, 0.5, 1, 2, 4, 6 and 24 h after administration; 5 mg/kg were given orally by gavage, and whole blood was collected at 0.25, 0.5, 1, 2, 4, 6, 24 h after administration in different batches, or the mice were killed at 2, 4 and 6 h to obtain brains. Whole blood samples were centrifuged and plasma was separated; brain tissue samples were homogenized by adding 4 times the volume of buffer, and the plasma and brain tissue samples were stored in a −80° C. refrigerator for later use. After the above plasma and brain tissue samples were precipitated with acetonitrile for protein, the supernatant was taken and mixed with water in a 1:1 ratio, and 10 μL was taken for LC-MS/MS detection.

A short description of data set [11]: Pharmacokinetics in rats. The data set is classed as in vivo, rat. Particulars: rat, po, male SD rats, 5 mg/kg orally by gavage, plasma; for Cmax: read-out: Cmax. How it is done: Male SD rats (200-300 g) were used for rat PK studies. Compounds were prepared and prepared immediately before use. Rats were administered intravenously or orally by gavage. Blood was collected from the rats through the orbital venous plexus, and 100 μL whole blood was collected into K2-EDTA tubes at each time point.
1 mg/kg was given intravenously, and whole blood was collected at 0.083, 0,25, $0.5, 1, 2, 4, 7, 24, 48, and 72 h after administration; 5 mg/kg were given orally by gavage, and whole blood was collected at 0.25, 0.5, 1, 2, 4, 7, 24, 48, and 72 h after administration in different batches, or the rats were killed at 4 and 24 h to obtain brains. The brain tissue samples were homogenized by adding 4 times the volume of buffer, and the whole blood and brain tissue samples were stored in a −80° C. refrigerator for later use. After the above whole blood and brain tissue samples were precipitated with acetonitrile for protein, the supernatant was taken and mixed with water in a ratio of 1:2, and 10 μL was taken for LC-MS/MS detection.

Consider “5^6-(9-(3- methoxy- propyl)-3,9- diazaspiro[5.5] undecan-3-yl)- 2^6-methyl-5^1H- 11-oxa-4-aza- 5(2,1)-benzo[d] imidazola- 1(34),2(2,4)- dipyridinacyclo- undecaphan- 3-one [Example 76]”, for which the GI50 in data set [1] worked out at 0.14 nM; in data set [2] it was 0.09 nM; in data set [7], 0.2 nM; in data set [8], 0.34 nM. In addition, the “CLint(μL/min/mg protein) Rat” value in data set [3] amounted to 15.6 μL/min/mg protein. In data set [4], this compound came in with a concentration for half-maximal inhibition (IC50) of 586 nM. In [5], the “CLint(μL/min/mg protein) Mouse” value is listed as 23 μL/min/mg protein. In data set [6], the “CLint(μL/min/mg protein) Human” value was 8 μL/min/mg protein.
On to `Cc1cc2cc(n1)-c1cnccc1OCCCCCn1c(nc3ccc(N4CCC5(CCN(C)CC5)CC4)cc31)NC2=O` [Example 1, 2^6-methyl-5^6-(9-methyl-3,9-diazaspiro[5.5]undecan-3-yl)-5^1H-11-oxa-4-aza-5(2,1)-benzo[d]imidazola-1(3,4),2(2,4)-dipyridinacycloundecaphan-3-one], for which the GI50 in data set [1] was determined as 0.24 nM; in data set [2] it was 0.08 nM; in [7], 0.62 nM; in data set [8], 0.23 nM. The microsomal CLint in data set [3] is 14.2 µL/min/mg; in data set [5] it was 32.7 µL/min/mg; in data set [6] it was 7.2 µL/min/mg; in data set [9] it was 8.9 µL/min/mg. Also, in data set [4] (Homo sapiens, A-431), the half-maximal inhibitory concentration (IC50) was determined as 1640 nM.
With `Cc1cc2cc(n1)-c1cnccc1OCCC[C@@H](C)Cn1c(nc3ccc(N4CCC5(CC4)CCN(C4COC4)CC5)cc31)NC2=O` [Example 4], the AUC(0-t) in data set [10] amounted to 2090 ng·h/mL; in [11], 2590 ng·h/mL. In addition, the half-life in [10] is 5.28 h; in data set [11], 27.5 h. Moreover, the Cmax in [10] is 181 ng/mL; in data set [11], 165 ng/mL. Moreover, the GI50 in data set [1] is 0.2 nM; in data set [2], 0.2 nM; in [7] it was 1.1 nM; in data set [8], 0.8 nM. Also, the microsomal CLint in [3] was 5.6 µL/min/mg; in data set [6], 26.3 µL/min/mg; in [9] it was 24 µL/min/mg. For the same compound, the half-inhibitory concentration (IC50) in data set [4] (Homo sapiens, A-431) was 274 nM.
As to `Cc1cc2cc(n1)-c1cnccc1OCCC[C@@H](C)Cn1c(nc3cc(F)c(N4CCC5(CC4)CCN(C4COC4)CC5)cc31)NC2=O` [Example 6, (R)-5^5-fluoro-2^6,7-dimethyl-5^6-(9-(oxetan-3-yl)-3,9-diazaspiro[5.5]undecan-3-yl)-5^1H-11-oxa-4-aza-3(2.1)-benzo[d]imidazola-1(3,4),2(2,4)-dipyridinacycloundecaphan-3-one], the AUC(0-t) in data set [10] was determined as 1140 ng·h/mL; in data set [11], 1700 ng·h/mL. Besides, the results for the half-life in [10] and in data set [11] were 21.5 h and 17.2 h, respectively. Moreover, the highest concentration (Cmax) in [10] came to 92.4 ng/mL; in data set [11], 106 ng/mL. In addition, the GI50 came out at 2.1 nM in [1], 0.38 nM in data set [2], 4.1 nM in data set [7] and 2.1 nM in [8]. Also, the microsomal CLint came to 2.9 µL/min/mg in data set [3], 41.5 µL/min/mg in [6] and 20.6 µL/min/mg in [9]. The same compound had a 50% inhibitory concentration (IC50) in [4] (Homo sapiens, A-431) of 403 nM.
In the case of `Cc1cc2cc(n1)-c1cnccc1OCCC[C@@H](C)Cn1c(nc3cc(C)c(N4CCC5(CC4)CCN(C4COC4)CC5)cc31)NC2=O` [Example 12, (R)-2^6,5^5,7-trimethyl-5^6-(9-(oxetan-3-yl)-3,9-diazaspiro[5.5]undecan-3-yl)-5^1H-11-oxa-4-aza-5(2,1)-benzo[d]imidazola-1(3,4),2(2,4) -dipyridinacycloundecaphan-3-on], the GI50 in data set [1] turned out to be 4.9 nM; in data set [2], 0.48 nM; in [7] it was 7.6 nM; in data set [8], 4.4 nM. The same compound had an IC50 in [4] (Homo sapiens, A-431) of 1000 nM. Also, the microsomal CLint is 5.5 µL/min/mg in [5], 24.9 µL/min/mg in [6] and 10.4 µL/min/mg in data set [9].
Consider `Cc1cc2cc(n1)-c1cnccc1OCCCCCn1c(nc3cc(C)c(N4CCC5(CCN(CCF)CC5)CC4)cc31)NC2=O` [Example 59, 5^6-(9-(2-fluoroethyl)-3,9-diazaspiro[5.5]undecan-3-yl)-2^6,5^5-dimethyl-5^1H-11-oxa-4-aza-5(2,1)-benzo [d]imidazola-1(3,4),2(2,4)-dipyridinacyclo-undecaphan-3-one], for which the GI50 was 2.4 nM in data set [1], 0.45 nM in data set [2], 3.7 nM in [7] and 5.7 nM in data set [8]. Further, the microsomal CLint stood at 23.3 µL/min/mg in data set [3], 8.93 µL/min/mg in data set [5] and 4.82 µL/min/mg in data set [6].
Regarding `COCCCN1CCC2(CC1)CCN(c1ccc3nc4n(c3c1)C[C@H](C)CCCOc1ccncc1-c1cc(cc(C)n1)C(=O)N4)CC2` [Example 77, (R)-5^6-(9-(3-methoxypropyl)-3,9-diazaspiro [5.5]undecan-3-yl)-2^6,7-dimethyl-5^1H-11-oxa-4-aza-5(2,1)-benzo [d]imidazola-1(3,4),2(2,4)-dipyridinacyclo-undecaphan-3-one], the GI50 was 0.36 nM in data set [1], 0.23 nM in data set [2], 0.36 nM in data set [7] and 0.18 nM in data set [8]. For the same compound, the microsomal CLint is 6.7 µL/min/mg in data set [3], 25.1 µL/min/mg in data set [5] and 17 µL/min/mg in data set [6]. Further, the IC50 in data set [4] (Homo sapiens, A-431) worked out at 426 nM.

Source of the values: US20250223300A1, “MACROCYCLIC COMPOUND AND PHARMACEUTICAL COMPOSITION AND USE THEREOF” (BETTA PHARMACEUTICALS CO., LTD, priority 2022, published 2025).
